From patent publication US8889591B2, “Herbicidal compositions comprising 4-amino-3-chloro-5-fluoro-6-(4-chloro-2-fluoro-3-methoxyphenyl)pyridine-2-carboxylic acid or a derivative thereof and bromobutide, daimuron, oxaziclomefone or pyributicarb” (Dow Agrosciences LLC, priority 2012, dated 2014)

Key:
[1] = system: ECHCO; test: Postemergence foliar-applied greenhouse weed control, direct-seeded rice system; assay type: in vivo, Echinochloa colona (L.) Link
Description: (§1) Seeds or nutlets of the desired test plant species were planted in a soil matrix prepared by mixing a loam or sandy loam soil (e.g., 28.6 percent silt, 18.8 percent clay, and 52.6 percent sand, with a pH of about 5.8 and an organic matter content of about 1.8 percent) and calcareous grit in an 80 to 20 ratio. The soil matrix was contained in plastic pots with a volume of 1 quart and a surface area of 83.6 square centimeters (cm^2). When required to ensure good germination and healthy plants, a fungicide treatment and/or other chemical or physical treatment was applied. The plants were grown for 8-22 days in a greenhouse with an approximate 14 h photoperiod which was maintained at about 29° C. during the day and 26° C. during the night. Nutrients (Peters Excel® 15-5-15 5-Ca 2-Mg and iron chelate) were applied in the irrigation solution as needed and water was added on a regular basis. Supplemental lighting was provided with overhead metal halide 1000-Watt lamps as necessary. The plants were employed for testing when they reached the first through fourth true leaf stage.
Treatments consisted of the acid or esters of 4-amino-3-chloro-5-fluoro-6-(4-chloro-2-fluoro-3-methoxy-phenyl)pyridine-2-carboxylic acid (Compound A), each formulated as an SC (suspension concentrate), and various herbicidal components alone and in combination. Forms of compound A were applied on an acid equivalent basis.
Other herbicidal components were applied on an active ingredient basis and included diamuron formulated as an EC (emulsifiable concentrate) and oxaziclomefone (technical grade material).
(§2) Treatment requirements were calculated based upon the rates being tested, the concentration of active ingredient or acid equivalent in the formulation, and a 12 mL application volume at a rate of 187 L/ha.
For treatments comprised of formulated compounds, measured amounts of compounds were placed individually in 25 mL glass vials and diluted in a volume of 1.25% (v/v) Agri-Dex® crop oil concentrated to obtain 12× stock solutions. […] Application solutions were prepared by adding an appropriate amount of each stock solution (e.g., 1 mL) and diluted to the appropriate final concentrations with the addition of 10 mL of an aqueous mixture of 1.25% (v/v) crop oil concentrate so that the final spray solutions contained 1.25+/−0.05% (v/v) crop oil concentrate.
For treatments comprised of technical compounds, weighed amounts can be placed individually in 25 mL glass vials and dissolved in a volume of 97:3 v/v acetone/DMSO to obtain 12× stock solutions. […] Application solutions can be prepared by adding an appropriate amount of each stock solution (e.g., 1 mL) and diluted to the appropriate final concentrations with the addition of 10 mL of an aqueous mixture of 1.5% (v/v) crop oil concentrate so that the final spray solutions contain 1.25% (v/v) crop oil concentrate. When technical materials are used, the concentrated stock solutions can be added to the spray solutions so that the final acetone and DMSO concentrations of the application solutions are 16.2% and 0.5%, respectively.
For treatments comprised of formulated and technical compounds, weighed amounts of the technical materials were placed individually in 25 mL glass vials and dissolved in a volume of 97:3 v/v acetone/DMSO to obtain 12× stock solutions, and measured amounts of the formulated compounds were placed individually in 25 mL glass vials and diluted in a volume of 1.5% (v/v) crop oil concentrate or water to obtain 12× stock solutions. […] Application solutions were prepared by adding an appropriate amount of each stock solution (e.g., 1 mL) and diluted to the appropriate final concentrations with the addition of an appropriate amount of an aqueous mixture of 1.5% (v/v) crop oil concentrate so that the final spray solutions contained 1.25% (v/v) crop oil concentrate. […]

[2] = system: CYPIR; test: as above; assay type: in vivo, Cyperus iria L.
Description: as §1, with “stage. […]” for “stage.”
as §2
For treatments comprised of formulated compounds, measured amounts of compounds were placed individually in 25 mL glass vials and diluted in a volume of 1.25% (v/v) Agri-Dex® crop oil concentrated to obtain 12× stock solutions. […]
For treatments comprised of formulated and technical compounds, weighed amounts of the technical materials were placed individually in 25 mL glass vials and dissolved in a volume of 97:3 v/v acetone/DMSO to obtain 12× stock solutions, and measured amounts of the formulated compounds were placed individually in 25 mL glass vials and diluted in a volume of 1.5% (v/v) crop oil concentrate or water to obtain 12× stock solutions. […]

[3] = Compound A Benzyl Ester 4.38 gae/ha alone
[4] = Compound A Benzyl Ester 8.75 gae/ha alone

`COc1c(Cl)ccc(-c2nc(C(=O)OCc3ccccc3)c(Cl)c(N)c2F)c1F` [Compound A Benzyl Ester] was tested. Which “Visual Weed Control (%) - 20 DAA ECHCO Obs” value [1, 3] did it give?
The value was 40%.

What about the “Visual Weed Control (%) - 20 DAA ECHCO Obs” value [1, 4] of the same compound?
The value was 90%.

What about the “Visual Weed Control (%) - 22 DAA CYPIR Obs” value [2, 3] of the same compound?
The value was 25%.

And the “Visual Weed Control (%) - 22 DAA CYPIR Obs” value [2, 4]?
The value was 50%.
